{"source": "patent US11358931B2", "about": "“Selective androgen receptor modulators (SARMs) and uses thereof” (priority 2007, dated 2022)", "key": {"hPR-B": {"biological_target": "T1, hPR-B (Homo sapiens, UniProt P06401)", "T1 construct": "expressed in transfected cells", "T1 sequence (P06401 1-933)": "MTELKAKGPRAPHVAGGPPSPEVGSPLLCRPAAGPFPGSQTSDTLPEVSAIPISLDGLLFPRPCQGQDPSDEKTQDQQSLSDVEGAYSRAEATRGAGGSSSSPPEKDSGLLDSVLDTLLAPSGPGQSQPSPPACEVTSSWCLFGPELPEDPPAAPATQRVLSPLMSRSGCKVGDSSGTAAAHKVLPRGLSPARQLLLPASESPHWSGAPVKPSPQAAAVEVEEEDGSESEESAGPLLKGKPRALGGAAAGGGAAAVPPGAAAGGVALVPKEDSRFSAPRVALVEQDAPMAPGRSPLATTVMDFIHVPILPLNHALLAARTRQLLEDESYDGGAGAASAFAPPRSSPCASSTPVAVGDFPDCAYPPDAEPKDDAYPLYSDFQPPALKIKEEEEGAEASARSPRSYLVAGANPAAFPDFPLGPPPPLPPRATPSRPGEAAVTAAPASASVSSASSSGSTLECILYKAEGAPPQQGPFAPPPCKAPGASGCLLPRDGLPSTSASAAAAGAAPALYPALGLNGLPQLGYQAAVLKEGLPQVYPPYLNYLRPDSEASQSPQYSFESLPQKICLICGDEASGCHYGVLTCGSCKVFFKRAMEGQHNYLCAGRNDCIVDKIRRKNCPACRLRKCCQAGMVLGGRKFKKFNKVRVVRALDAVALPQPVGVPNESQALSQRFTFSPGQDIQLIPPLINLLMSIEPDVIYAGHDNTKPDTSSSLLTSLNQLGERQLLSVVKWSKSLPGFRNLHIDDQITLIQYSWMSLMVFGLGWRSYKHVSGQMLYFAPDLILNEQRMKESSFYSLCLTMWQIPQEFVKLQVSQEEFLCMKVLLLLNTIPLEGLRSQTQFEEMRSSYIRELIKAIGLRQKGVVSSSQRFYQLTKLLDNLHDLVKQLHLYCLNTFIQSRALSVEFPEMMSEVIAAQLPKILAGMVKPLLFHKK", "test": "Co-transfection assay, other nuclear receptors: hPR-B", "assay_type": "cell-based", "text": "An exemplary co-transfection assay is the luciferase reporter assay (Evans, Science 240: 889-895 (1988), Berger et al., J Steroid Biochem Mol Biol 41: 733-738 (1992)) can be used to establish the ability of a compound of formulae I, II or III to activate (agonist activity) or repress (antagonist activity) the ability of the human androgen receptor (hAR) to induce gene expression. A human cell line containing endogenously expressed hAR (e.g., MDA-MB-453 cells, derived from a human mammary carcinoma, American Tissue Type Culture Collection [ATCC] HTB 131) can be transfected with an androgen responsive luciferase reporter plasmid to measure the level of cross-reactivity of the compound on other nuclear receptors (such as the glucocorticoid receptor (GR), estrogen receptor (ER), mineralocorticoid receptor (MR), progesterone receptor (PR), retinoid receptor (RAR), retinoid X receptor (RXR), peroxisome proliferator activating receptors alpha (PPARα), gamma (PPARγ) and delta (PPARδ), liver X receptor (LXR), farnesyl X receptor (FXR) and the pregnane X receptor (PXR)). In the assay, luciferase reporter plasmids containing the cDNA for firefly luciferase (LUC) under the control of a conditional promoter containing hormone response elements recognized by the appropriate nuclear receptor are co-transfected into cells with the nuclear receptor expression plasmid. […]"}, "[1]": {"test": "Toxicokinetics in Sprague Dawley rats (14-day oral study)", "assay_type": "in vivo, rat", "method": "A Sprague Dawley Rat model was used to study oral toxicity and toxicokinetics. Animals were assigned to groups by a stratified randomization scheme designed to achieve similar group mean body weights and the groups were randomly assigned to a dosing to provide control of bias.\nAll animals were dosed via oral gavage once daily for 14 days. The animals were evaluated for changes in clinical signs (mortality/morbidity observations, twice daily), cage side observations (general appearance and behavior), food consumption (quantitatively measured by weighing), body weights, clinical pathology indices including serum chemistry, hematology, coagulation and urinalysis, and other parameters. Blood samples were collected for toxicokinetics analysis from Groups 6-10 at various time points on Days 1 and 14 (Group 6 4 hours post dose; Groups 7-10 at 1, 4 and 12 hours or 2, 8 and 24 hours). The animals were fasted for at least 8 hours prior to blood collections for serum chemistry and urine collection. Serum chemistry parameters tested included alanine aminotransferase, total protein, aspartate aminotransferase, albumin, alkaline phosphatase, globulin, gamma-glutamyl-transferase, albumin/globulin ratio, lactate dehydrogenase, glucose, total bilirubin, cholesterol, urea nitrogen, triglycerides, creatinine, sodium, calcium, potassium, phosphorus and chloride. Hematology parameters analyzed included red blood cell count, reticulocyte count, hemoglobin concentration, red blood cell distribution width, mean corpuscular volume, mean platelet volume, mean corpuscular hemoglobin concentration, white blood cell count and differentials and mean corpuscular hemoglobin. Urinalysis parameters included color/character, ketones, specific gravity, bilirubin, pH, occult blood, protein, glucose and microscopics. Main study animals were euthanized on Day 15. At termination, a full necropsy was conducted and all tissues were collected, preserved, processes and examined microscopically from Groups 1 and 5, and target organs (liver and kidney) from Groups 2-4, by a veterinary pathologist certified by the American College of Veterinary Pathologists."}}, "note": "pIC50: −log10 of the molar value."}
{"smiles": "N#Cc1ccc(N2CCC[C@@H]2[C@@H](O)C(F)(F)F)cc1C(F)(F)F", "note": "[Compound 102, R,R-4-(2-(1-Hydroxyl-2,2,2-trifluoroethyl)-pyrrolidinyl)-2-trifluoromethyl-benzonitrile]", "values": [{"measurement": "pIC50", "setting": "hPR-B", "value": 6.55}, {"measurement": "antagonism of progesterone-induced activation of hPR-B (efficacy)", "setting": "hPR-B; progesterone-induced activation", "value": 74, "unit": "%"}, {"measurement": "sex difference of systemic exposure", "setting": "[1]; Day 1", "value": "higher systemic exposure in females across all dose levels"}, {"measurement": "systemic exposure at 700 mg/kg/day", "setting": "[1]; Day 1, 700 mg/kg/day", "value": "not increased, indicating that absorption was saturated"}, {"measurement": "systemic exposure versus dose", "setting": "[1]; Day 1, male and female rats", "value": "increased with increasing dose up to 300 mg/kg/day"}, {"measurement": "effect of repeat administration on systemic exposure", "setting": "[1]; Day 14 vs Day 1, more pronounced in high dose groups", "value": "decreased systemic exposure"}]}
